Experimental data as given in article PMC10385865, “Synthesis and Anticancer Activity of Novel Dual Inhibitors of Human Protein Kinases CK2 and PIM-1” (Pharmaceutics, 2023).

Key:
[1] = system: phosphorylation of Ser112 in BAD (marker of PIM-1 activity), MCF-7; assay: Western blot/densitometry, intracellular PIM-1 inhibition, MCF-7; type: cell-based, human; conditions: MCF-7, 10 µM, 48 h, densitometry
Protocol: (§1) All the procedures are described in detail in Supplementary Materials (Section S3.3). The protein concentration was determined using a Bradford assay.
(§2) For densitometry, immunoblots were scanned using G Box Chemi (Syngene, Cambridge, UK), and the density of each lane of phosphorylated and total protein was quantified using GeneSys software (Syngene, Cambridge, UK). Phosphorylated protein densities were normalized to GAPDH densities, assuming 1 for untreated cells; then, they were converted to a percentage of the appropriate control.
(§3) The data obtained for p65 confirmed the intracellular inhibition of CK2 by the tested compounds in all the studied cell lines in a dose-dependent manner. […] Otherwise, Western blot data for BAD (a marker of PIM-1 activity) indicated inhibition of PIM-1 only in MCF-7 cells, with the most significant reduction in phosphorylated BAD in cells treated with 10 µM conc. of rac-6 (0.49 of control) (Figure 8b). Unexpectedly, the relative level of BAD-P in the drug-treated CCRF-CEM and K-562 cells was even higher than in control cells.
(§4) The following primary antibodies were used: anti-GAPDH (Millipore, St. Louis, MO, USA; […]
(§5) overnight, +4°C); anti-BAD (Apoptosis I Sampler Kit, # 612741, BD Biosciences, San Diego, CA, USA; 1:1000, overnight, +4°C), anti-phospho-BAD-Ser112 (CST, Beverly, MA, USA; 9291S, 1:500 overnight, +4°C). […]

[2] = system: phosphorylation of Ser112 in BAD (marker of PIM-1 activity), CCRF-CEM; assay: Western blot/densitometry, intracellular PIM-1 inhibition, CCRF-CEM; type: cell-based, human; conditions: 48 h
Protocol: as §1, §2, §3, §4, §5

Q: Which results are given for `OC(CNc1nc2c(Br)c(Br)c(Br)c(Br)c2[nH]1)C(F)(F)F` (racemic) [rac-6, 1,1,1-Trifluoro-3-[(4,5,6,7-tetrabromo-1H-benzimidazol-2-yl)amino]propan-2-ol]?
A: phosphorylated BAD, relative level [1]: 0.49 of control; level of phosphorylated BAD (in words) [2]: increased level of phosphorylated BAD
